Patent US9360471B2, “Anti-aging agents and methods to identify them” (priority 2009, dated 2016)
Where “and” joins values, the source holds several entries; their conditions need not be identical. Equal values may be shown once.

How the values were obtained:
cdc13-1 cells [1] = assay: cdc13-1 cell survival after cdc13-1p inactivation, colony formation assay; assay type: cell-based, budding yeast; conditions: for cell death triggered by inactivation of cdc13-1p (colony formation assay): 37° C. about 30 hrs, 6.7 μM PEITC, 5 mM silibinin, 1.25 mM selenite, 2.5 mM genistein, 250 μg/mL GSE, 50 μg/mL EGCG, 3 mg/mL bilberry extract
Description: To induce telomere dysfunction, fresh overnight cultures of cdc13-1 were diluted into YEPD medium with the indicated concentrations of glucose or 2-deoxyglucose and incubated at 37° C. for 24 hrs. For colony formation assay, treated cells were then serially diluted 10-fold in H2O and 5 μL was spotted onto regular YEPD plates. The plates were incubated at 24° C. for survived cells to form colonies. The starting number of live-cells was also counted by this colony formation assay. (B) Nitrogen restriction inhibits cell death induced by cdc13-1p inactivation as monitored by a colony formation assay. Cells were incubated in synthetic medium (SC) or SC—N (SC without amino acids and (NH4)2SO4 as nitrogen sources) at 37° C. for 24 hrs. The number of survived cells was counted using colony formation assay as described in 1A. (C-D) Inhibition of TOR by low doses of rapamycin (labeled as Rapa) (below growth inhibition concentration) can prevent cell death induced by cdc13-1p inactivation. Cells were incubated with the indicated concentrations of rapamycin in YEPD medium at 37° C. for 24 hrs. The number of survived cells was measured by the colony formation assay as in 1A. For growth curve, fresh overnight culture was diluted into YEPD medium and incubated at 24° C. in the presence of the indicated concentrations of rapamycin. Cell Density (OD595) was measured at the indicated time points and plotted against the time. (E) Deterioration of growth arrested cdc13-1 cells can be delayed by low dose of rapamycin (1 nM) and glucose restriction (0.5%) as measured by counting surviving cells using the colony formation assay. The data represent an average of three experiments.
(§1) (A) Cells were incubated at 37° C. to inactivated cdc13-1p, in YEPD medium, YEPD+1 nM rapamycin or YEPD with 0.5% glucose. At the indicated time points, an aliquot of cells was taken out and fixed with 50% ethanol at −20° C. for about 4 hrs, and then digested with 0.2 mg/mL RNase A in 50 mM Tris pH 7.6 at 37° C. overnight. The cells were next washed with 50 mM Tris pH 7.6 and treated with 40 μg/mL proteinase K at 55° C. for 2 hrs. After being washed again, cells were stained with 100 μg/mL propidium iodide for 20 min in the dark prior to FACS (Fluorescence activated cell sorter) analysis. […] Cells were incubated at 37° C. for 2 hours first, then diluted with a 37° C.-YEPD medium, YEPD with rapamycin to make a final concentration of 1 nM, or with a 37° C.-medium without glucose to make final 0.5% glucose. The cells were continuously incubated at 37° C. for 22 hrs. Surviving cells were counted using the colony formation assay.
The 6.7 μM PEITC, 5 mM silibinin, 1.25 mM selenite, 2.5 mM genistein, 250 μg/mL grape seed extract (GSE), 50 μg/mL EGCG, and 3 mg/mL bilberry extract (BE) were incubated with cells at 37° C. for about 30 hrs. The cell survival was measured by the colony formation assay at a permissive temperature 24° C.
In addition, limitation of nitrogen by SC—N medium (containing 0.67% yeast nitrogen base in absence of amino acids and (NH4)2SO4, 2% glucose, plus a mixture of 100 mg/L each of histidine, leucine, tryptophan and uracil for this yeast strain) prevented the cell death (FIG. 1B). […] After 60 hrs of incubation at 37° C., cell survival was at least 100-fold more than those without treatment.

[2] = test system: senescent WI-38 cells (human primary fibroblast); assay: loss of senescent WI-38 cells, β-galactosidase (X-gal) staining; assay type: cell-based; conditions: 56 days in senescence; 50 pM rapamycin, 250 μM AICAR, 20 μg/mL EGCG, 1.6 μg/mL GSE, 20 μg/mL bilberry extract, 1 μM AITC, 12.5 μM 2-deoxyglucose; 3-day-on/7-day-off (AICAR 2-day-on/8-day-off)
Description: AICAR and reduced glucose treatment were incubated with cells in a 2-day-on/8-day-off cycle, while the rest of agents were in a 3-day-on/7-day-off cycle. The treatment started at passage 29. The medium was refreshed every 3 days. After 56-days from passage 31 (senescence), the cells were briefly fixed in 2% formaldehyde/0.2% glutaraldehyde and stained with 1 mg/mL 5-bromo-4-chloro-3-indolyl β-D-galactoside (X-gal) (in buffer containing 40 mM citric acid/sodium phosphate, pH 6.0, 5 mM potassium ferrocyanide, 5 mM potassium ferricyanide, 150 mM NaCl, and 2 mM MgCl2) at 37° C. for 18 hrs for the senescence marker, cellular β-galactosidase activity (blue in color picture and dark grey in black/white picture). Surviving senescent cells were viewed under a microscope.
This invention discloses that CR or rapamycin also prolongs senescence and prevents cell death induced by telomere dysfunction in human cells. Primary human embryonic lung fibroblasts WI-38 were used. […] Cells at passage 29 were treated with 50 pM rapamycin. The treatment was on a 10-day cycle of 3-day with and 7-day without rapamycin (also termed as 3-day-on/7-day-off cycle). […] Due to increased cytosol β-galactosidase activity, senescent cells are stained a blue color (shown as dark grey in black/white picture). […] Rapamycin didn't transform cells since the senescence marker was still present and cell growth was not observed.

human lymphoblastoid L40 = assay: mitochondrial mass in human lymphoblastoid L40, MitoTracker Green FM and FACS; assay type: cell-based; conditions: for mitochondrial mass: 2-day treatment, 10 μM LY294002, 2 μM DATS, 1 μM BITC, 1 μM PITC, 2 μg/mL resveratrol, 0.03 μM lycopene, 6.7 μM PEITC, 5 mM silibinin, 1.25 mM selenite, 2.5 mM genistein, 250 μg/mL GSE, 50 μg/mL EGCG, 3 mg/mL bilberry extract, 1 μM AITC, 50 pM rapamycin, 250 μM AICAR
Text: Mitochondrial mass was monitored by staining the 60% Ethanol-fixed cells with MitoTracker Green FM prior to FACS analysis.

NIH3T3 cells = assay: mitochondrial mass in NIH3T3 cells treated with TPA; assay type: cell-based, mouse; conditions: 10 μM TPA, two days
Description: NIH3T3 cells were incubated in DMEM medium (DMEM with 10% FCS, 100 units/mL penicillin, 100 μg/mL streptomycin and 2 mM glutamine) in the presence of control DMSO, 10 μM TPA, 1 nM rapamycin, 10 μM TPA+1 nM rapamycin, 40 μM AICAR, or 10 μM TPA+40 μM AICAR at 37° C. in a humidified atmosphere consisting of 95% air and 5% CO2 for two days. Cells were then harvested by trypsin and fixed by 60% ethanol. The cells were stained with MitoTracker Greeen FM in darkness for 30 min prior to FACS analysis. The data represents the average of a triplica-experiment.

marine models = marine models (Calvert 2008); cited from earlier work
cdc13-1 cells [3] = assay: DNA content / cell cycle FACS analysis after cdc13-1p inactivation; assay type: cell-based, budding yeast; conditions: rapamycin 1 nM in YEPD, 37° C. for 2 hrs
Description: as §1

WI-38 cells = assay: growth and population doubling of WI-38 cells; assay type: cell-based, human; conditions: 25 pM rapamycin; without rapamycin 5.18 or 5.12
Description: (A) WI-38 cells were treated with the indicated concentrations of rapamycin as in FIG. 7. The treatment started at passage 29. Cells entered senescence at passage 31. After 65-days in senescence, surviving cells were measured by MTT (3-(4,5-dimethylthiazol-2-yl)-2,5-diphenyltetrazolium bromide, a tetrazole) staining. The purple color of MTT generated by mitochondrial reductase was read in 570 nm by a microplate reader. The data is a representative of three independent duplica-experiments. (B) The effect of rapamycin on growth of WI-38 cells. Cells were cultured as in FIG. 7. Arrows indicate the time point when rapamycin was added. 25 pM rapamycin has little effect on growth rate, but increases the population doubling (PD) from 5.18 to 6.82. Population doublings were calculated using the following formula: PD=log(Nf/N0)/log 2, where Nf is the final cell number and N0 is the number of initially seeded cells. Data is a representative of two independent duplica-experiments. (C) The low doses of rapamycin increase protein levels of p53, p21 and pRB. WI-38 cells on the 20th day after the last split (senescence) were treated with rapamycin for 18 hrs. Cell lysates were then analyzed by Western blotting using antibodies specifically against p53, p21 or pRB.

O=CC[C@@H](O)[C@H](O)[C@H](O)CO [2-deoxyglucose, reference compound]
cell death induced by inactivation of cdc13-1p (colony formation assay) (cdc13-1 cells [1]; 200 μM added to YEPD with 2% glucose, 37° C. 22 hrs): prevented cell death effectively | loss of the senescent WI-38 cells [2]: prevented | mitochondria mass (human lymphoblastoid L40; 12.5 μM 2-deoxyglucose): increased mitochondria mass

C=CCN=C=S [AITC, allyl isothiocyanate]
loss of the senescent WI-38 cells [2]: prevented | mitochondrial mass (human lymphoblastoid L40): increased

O=C(O[C@@H]1Cc2c(O)cc(O)cc2O[C@@H]1c1cc(O)c(O)c(O)c1)c1cc(O)c(O)c(O)c1 [EGCG, Epigallocatechin gallate]
cell death triggered by inactivation of cdc13-1p (colony formation assay) (cdc13-1 cells [1]): inhibited cell death | loss of the senescent WI-38 cells [2]: prevented | mitochondrial mass (human lymphoblastoid L40): increased

S=C=NCCc1ccccc1 [PEITC, phenethyl isothiocyanate]
cell death triggered by inactivation of cdc13-1p (colony formation assay) (cdc13-1 cells [1]): inhibited cell death | mitochondrial mass (human lymphoblastoid L40): increased

CCCCCCCCCCCCCC(=O)O[C@@H]1[C@@H](C)[C@@]2(O)[C@@H](C=C(CO)C[C@]3(O)C(=O)C(C)=C[C@@H]23)[C@@H]2C(C)(C)[C@]12OC(C)=O [TPA, 12-O-tetradecanoylphorbol 13-acetate]
mitochondrial mass in NIH 3T3 cells (NIH3T3 cells): dramatically decreased the mitochondrial mass

S=C=NCc1ccccc1 [benzyl isothiocyanate]
mitochondrial mass (human lymphoblastoid L40): increased

C=CCSSSCC=C [diallyl trisulfide]
mitochondrial mass (human lymphoblastoid L40): increased

O=c1c(-c2ccc(O)cc2)coc2cc(O)cc(O)c12 [genistein]
cell death triggered by inactivation of cdc13-1p (colony formation assay) (cdc13-1 cells [1]): inhibited cell death | mitochondrial mass (human lymphoblastoid L40): increased

CC(C)=CCC/C(C)=C/C=C/C(C)=C/C=C/C(C)=C/C=C/C=C(C)/C=C/C=C(C)/C=C/C=C(\C)CCC=C(C)C [lycopene]
mitochondrial mass (human lymphoblastoid L40): increased

CN(C)C(=N)N=C(N)N [metformin]
myocardial infarction (marine models): can reduce myocardial infarction

S=C=Nc1ccccc1 [phenyl isothiocyanate]
mitochondrial mass (human lymphoblastoid L40): increased

CO[C@H]1C[C@@H]2CC[C@@H](C)[C@@](O)(O2)C(=O)C(=O)N2CCCC[C@H]2C(=O)O[C@H]([C@H](C)C[C@@H]2CC[C@@H](O)[C@H](OC)C2)CC(=O)[C@H](C)/C=C(\C)[C@@H](O)[C@@H](OC)C(=O)[C@H](C)C[C@H](C)/C=C/C=C/C=C/1C [rapamycin]
cell survival compared with those without treatment (cdc13-1 cells [1]; low dose of rapamycin (1 nM), after 60 hrs of incubation at 37° C.): at least 100 fold | cells entered the G2/M phase of cell cycle (cdc13-1 cells [3]): more than 95% | population doubling (PD), replication potential (WI-38 cells): 6.8 and 6.82

Oc1ccc(C=Cc2cc(O)cc(O)c2)cc1 [resveratrol]
mitochondrial mass (human lymphoblastoid L40): increased

O=[Se]([O-])[O-].[Na+].[Na+] [selenite, selenite (Na2SeO3)]
cell death triggered by inactivation of cdc13-1p (colony formation assay) (cdc13-1 cells [1]): inhibited cell death | mitochondrial mass (human lymphoblastoid L40): increased
